pIC50: −log10 of the molar value. “Also recorded” adds a separate entry of the source.
Tests used:
ERK2 = molecular target: T1, ERK2 (Homo sapiens, UniProt P28482); assay: Kinase panel screen (KinaseProfiler), ERK2; format: biochemical; settings: 10 μM ATP
T1 construct: purchased Upstate, Millipore Bioscience Division (KinaseProfiler service)
Experimental: Compounds of Formulae I and II were examined for activity against a selected panel of kinases using the KinaseProfiler™ enzyme profiling services (Upstate, Millipore Bioscience Division). Percent kinase activity at 10 μM and 1 μM test compound and 10 μM ATP was determined against 40 wild-type recombinant human kinases according to Upstate's standard protocol: ASK1, BTK, CSK, c-RAF, GCK, GSK3β, IKKα, IKKβ, IRAK1, IRAK4, JNK1α1, JNK2α2, JNK3, ERK1, ERK2, MAPKAP-K2, MAPKAP-K3, MEK1, MKK4, MKK6, MKK7β, Mnk2, MSK1, PAK3, PDK1, PRAK, ROCK1, Rsk2, SAPK2a, SAPK2b, SAPK3, SAPK4, SRPK1, SRPK2, Syk, TAK1, TBK1, PI3-Kβ, PI3-Kγ, PI3-Kδ.

LPS-challenged mice = assay: LPS-induced neutrophilia and cytokine production assay; format: in vivo, mouse; settings: for IL-1β levels in BALF: intratracheal administration, LPS-challenged mice
Experimental: This assay is an in vivo assay of neutrophil accumulation and cytokine production that can be used to evaluate the activity of Rho Kinase inhibitor compounds of Formula I or II as anti-inflammatory agents in a whole animal model.
Male BALB/c mice, approximately 19 to 21 grams, were ordered from Charles River Laboratories (Raleigh, N.C.). All animals were challenged with aerosolized LPS (10 μg/ml) for 25 minutes on study day 0. LPS aerosol was generated using an Aerogen Aeroneb nebulizer and controller providing a flow of 400 μl/min and a particle size of 2-4 μm MMAD. Rolipram was administered i.p at 20 mg/kg. […] Four hours following LPS challenge, BALF was collected using a total of 3 ml of 0.9% sodium chloride containing 10% fetal calf serum. Total cell counts were determined using the Coulter Counter. For differential evaluations, BALF was centrifuged and cytospin slides prepared and stained with Hema3 stain. Manual leukocyte counts were then completed on 200 cells. The final concentration of individual leukocyte cell types per ml of BALF was determined by multiplication of the relative percentage of individual leukocytes with the total amount of cells/ml of BALF fluid. The concentration of IL-1β in the BALF samples was determined using commercially available Bio-plex kits (Bio-Rad). The analysis of cytokine levels was measured using the Bio-Plex 200 (Bio-Rad) system according to the manufacturer's instructions.

[1] = system: LPS-stimulated human monocytes; assay: Human monocyte cytokine secretion assay (LPS); format: cell-based; settings: range over the three cytokines and both compounds, read-out: potencies for reducing secretion of IL-1β, TNF-α and IL-9
Experimental: Peripheral blood from healthy human volunteers was collected and the monocytes isolated via Ficoll-paque density centrifugation. […] The cells were allowed to pre-incubate with test compound at the indicated concentration for 30 minutes (37° C., 5% CO2, humidified air); after which the supernatant was removed and media containing compound and 1 ng/mL LPS was added. Cells were allowed to incubate with compounds and LPS for 4 hours at 37° C. after which the supernatant was removed and stored at −80° C. Cytokine concentrations in the supernatant were determined using commercially available Bio-Rad Bio-plex™ kits according the manufacturer's instructions.

[2] = Rat oral pharmacokinetics (plasma); format: in vivo; settings: 20-30 μmol/kg, mean n = 3
Experimental: Plasma (EDTA K2 anticoagulant) was collected from male, cannulated, CD Sprague Dawley rats to determine the pharmacokinetics of formulations containing compound inhibitors of Rho kinase. Each animal was dosed orally with a 4 ml/kg solution or suspension of each test compound in 10 mM acetate buffered saline, pH 4.5 at a final concentration range of 20-30 μmol/kg. Blood was collected at 0.25, 0.5, 1, 2, 4, 6, 8, and 24 hours. Plasma samples were assayed for the concentration of the test compound using an on-line, solid phase extraction LC/MS/MS analysis system.
Samples were analyzed on a QSTAR Elite, hybrid quadrupole time-of-flight mass spectrometer (Applied Biosystems, Framingham, Mass.) coupled with a Symbiosis Pharma integrated, on-line SPE-HPLC system (Spark Holland Inc., Plainsboro, N.J.). Analyst QS 2.0 software was used for instrument control, data acquisition and processing. […] Mobile Phase A consisted of 0.1% ammonium hydroxide in water and Mobile Phase B consisted of 0.1% formic acid in acetonitrile. Pharmacokinetic analyses were performed using WinNonlin software version 5.2 (Pharsight Corporation, Mountain View, Calif.).
As determined from the plasma concentration versus time curves, the time to peak and peak exposure are represented by the values Tmax and Cmax, respectively. The AUC values (nM*hr) shown were calculated as the areas under the plasma concentration versus time curves from time zero through the time of the last observable value and represent the total exposure of the compound over the course of the study. Half-life values or the amount of time required for the plasma levels of the compound to decline to half the initial value are represented as t½.

[3] = system: ova-sensitized, ova-challenged mice; assay: Prevention of airway hyperreactivity (Penh, methacholine) in ovalbumin-sensitized mice; format: in vivo, mouse; settings: for airway hyperreactivity to metacholine: oral 15 μMol/kg once a day during days 27 to 31, tested Day 32
Text: Airway hyperreactivity is a downstream physiologic effect of inflammation in the mouse ovalbumin sensitization model. The objective of the experiment was to answer whether the decrease in inflammation due to ROCK inhibitor anti-inflammatory dosing results in the prevention of downstream physiological consequences as measured by Penh. […] The anti-inflammatory dosing paradigm consists of dosing the animals once a day starting on day 27 and finishing on either day 30 or 31 (1 hr prior to the aerosolized ovalbumin challenges on days 28 to 30) but not on day 32 when hyperreactivity evaluation occurs. […] Exposure to the methacholine doses consisted of a 3 minute period during which a nebulizer was aerosolizing the methacholine and an additional 3 minute period following the cessation of nebulization. […] Enhanced pause (Penh), a unitless index of airway hyperreactivity, is derived from the expiratory side of the respiratory waveform measured via the plethysmograph and is used as an indirect measure of airway resistance and hyperreactivity. […] Following the methacholine dose response, BALF was collected and all animals were anesthetized, bled and euthanized. […] The Penh value at each of the dose levels of methacholine represents the 6-minute average response. Change from baseline (CFB) in Penh was calculated at each methacholine dose and the area under the curve (AUC) for these CFB values was calculated using the trapezoidal rule. This same approach was applied for each mouse across multiple experiments. […] Data from equal experimental conditions across experiments performed on different days were pooled for statistical analysis and data reporting. […] A random intercept for each experiment was assumed to account for possible similarities of the results obtained from a given experiment (i.e., as a “blocking effect”). […] For FIG. 7, linear AUC values from compound treated mice were reported as a percent of linear AUC values from vehicle-treated ovalbumin-sensitized/ovalbumin-challenged (asthmatic) mice. […]

[4] = system: ova-sensitized, ova-challenged mice; assay: Mouse ovalbumin sensitization model, anti-inflammatory dosing: BALF eosinophils and cytokines; format: in vivo; settings: for Airway eosinophil infiltration (eosinophils per ml of BALF): dosed orally to day 31, anti-inflammatory dosing paradigm
Experimental: Male BALB/c mice were ordered from Charles River Laboratories (Raleigh, N.C.). The animals were approximately 19 to 21 grams at time of receipt. Upon arrival, the animals were randomized into groups of five males per cage and assigned to a dosing group. Animals were quarantined for 7 days under test conditions. They were observed daily for general health status and ability to adapt to the water bottles. Animals were sensitized on day 0 and 14 of study by an intraperitoneal injection with 20 μg of ovalbumin (ova) and 2.0 mg aluminum hydroxide (alum) which initiates the development of a specific T-helper (Th) cells type 2 resulting in asthmatic animals (denoted as Ova in the figures). One group of animals received an injection of saline to use as control animals (denoted as normal in the figures). […] Aerosol challenge consists of using an Aerogen Aeroneb nebulizer and controller with a particle size of 4-6 μm mass median aerodynamic diameter (MMAD) with a distribution of 400 μl per minute. This aerosol challenge is necessary to target the Th2-driven allergic inflammation in the lower airways.
The anti-inflammatory dosing paradigm (FIG. 1) was utilized to evaluate the anti-inflammatory effects of experimental compounds. […] On day 32 of the experiment, after measurement of airway hyperreactivity, BALF was collected and all animals were anesthetized, bled and euthanized.
Bronchoalveolar lavage fluid (BALF) was collected by infusing 3.0 ml of saline with 10% fetal calf serum into the lungs via the trachea and then withdrawing the fluid. The total amount of cells/ml of BALF fluid was determined via manual cell count on hemocytometer. The BALF was centrifuged, supernatant removed and analyzed for cytokine concentrations as described below, and cell pellet reconstituted in 500 μL of fluid. Cytospin slides were prepared from the cell pellet using 100 μL of fluid and spinning samples for 5 minutes at 5000 rpms in a cytospin centrifuge. Following Hema3 stain, relative percentages of individual leukocytes were determined on a 200 cell count for each sample. The final concentration of individual leukocyte cell types per ml of BALF was determined by multiplication of the relative percentage of individual leukocytes with the total amount of cells/ml of BALF fluid.
The concentrations of cytokines in the BALF samples were determined using commercially available Bio-plex kits (Bio-Rad) for the detection of mouse IL-5, IL-13, and Eotaxin. The analysis of cytokine levels was measured using the Bio-Plex 200 (Bio-Rad) system according to the manufacturer's instructions.

murine eosinophils = assay: Murine eosinophil chemotaxis (eotaxin); format: cell-based, mouse; settings: 10 nM eotaxin challenge
Experimental: These assays are in vitro assays of eosinophil chemotaxis that can be used to evaluate the ability of Rho Kinase inhibitor compounds of Formula I or II to inhibit the migration of eosinophils, an immunomodulatory cell involved in inflammation. Compounds with activity in this assay can be utilized to treat disease associated with an inflammatory response. Mouse Eosinophil Isolation: Bronchoalveolar lavage was collected from ovalbumin sensitized and challenged mice in a volume of 2.5 mL lavage buffer. The lavage buffer was 0.9% saline with 10% fetal bovine serum. The pooled lavages were maintained on ice until use. […] In Vitro Chemotaxis: […]

human eosinophils = assay: Human eosinophil chemotaxis (eotaxin); format: cell-based; settings: 1 nM eotaxin challenge
Text: These assays are in vitro assays of eosinophil chemotaxis that can be used to evaluate the ability of Rho Kinase inhibitor compounds of Formula I or II to inhibit the migration of eosinophils, an immunomodulatory cell involved in inflammation. Compounds with activity in this assay can be utilized to treat disease associated with an inflammatory response. Human Eosinophil Isolation: Peripheral blood from healthy human volunteers was collected and the PMNs separated via Ficoll-paque density centrifugation followed by hypotonic lysis of the red blood cells. Subsequently, the human eosinophils were isolated from the cell suspension via StemCell Technologies Human Eosinophil Enrichment kit (Cat. No 19256) according to the manufacturer's recommendations. Briefly, unwanted cells were specifically labeled with dextran-coated magnetic nanoparticles using bispecific Tetrameric Antibody Complexes (TAC) directed against cell surface antigens on human blood cells: […] The unwanted cells are then separated from the unlabelled eosinophils using the EasySep® magnetic isolation procedure. In Vitro Chemotaxis: […]

[5] = 15 μmol/kg/oral on days 27 to 31

T1 sequence (P28482 whole entry): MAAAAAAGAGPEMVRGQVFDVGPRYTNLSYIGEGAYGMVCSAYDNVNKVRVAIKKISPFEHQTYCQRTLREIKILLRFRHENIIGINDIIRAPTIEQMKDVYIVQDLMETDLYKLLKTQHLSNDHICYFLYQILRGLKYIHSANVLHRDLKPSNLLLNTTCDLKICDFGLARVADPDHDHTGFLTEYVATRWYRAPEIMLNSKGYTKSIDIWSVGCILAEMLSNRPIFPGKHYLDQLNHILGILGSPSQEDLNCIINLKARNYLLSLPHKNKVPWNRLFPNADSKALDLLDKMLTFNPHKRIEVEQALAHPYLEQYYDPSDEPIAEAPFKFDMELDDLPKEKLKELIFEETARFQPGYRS

NC(=O)Cn1ccc2cc(CN3CC[C@@H](Nc4cccc5cnccc45)C3)ccc21 [Compound 2.059, (R)-2-(5-((3-(isoquinolin-5-ylamino)pyrrolidin-1-yl)methyl)-1H-indol-1-yl)acetamide]
Percent inhibition ERK2 (ERK2; 1 μM test compound): 56% | IL-1β levels in BALF (LPS-challenged mice): reduction in IL-1β; also recorded: reduction of IL-1β levels | pIC50 [1]: 6.00 to 6.77

CS(=O)(=O)Nc1cccc(CN2CCC[C@H](Nc3ccc4[nH]ncc4c3)C2)c1 [Compound 1.091, (S)-N-(3-((3-(1H-indazol-5-ylamino)piperidin-1-yl)methyl)phenyl)methanesulfonamide]
AUC (0-last) [2]: BLQ | Cmax [2]: BLQ | Tmax [2]: BLQ | t½ [2]: BLQ | airway hyperreactivity ([3]; intratracheal once a day during days 27 to 30): prevention of airway hyperreactivity | eosinophils in BALF ([4]; dosed i.t. to day 30, anti-inflammatory dosing paradigm): reduction of eosinophils | IL-1β levels in BALF (LPS-challenged mice): reduction in IL-1β; also recorded: reduction of IL-1β levels | LPS-induced pulmonary neutrophilia influx (LPS-challenged mice; intratracheal dosing one hour prior to LPS challenge): significant reduction; also recorded: dose-dependent inhibition

c1cc2cc(CN3CCC[C@@H](Nc4ccc5[nH]ncc5c4)C3)ccc2o1 [Compound 1.131, (R)-N-(1-(benzofuran-5-ylmethyl)piperidin-3-yl)-1H-indazol-5-amine]
airway hyperreactivity to metacholine [3]: prevention of airway hyperreactivity | Airway eosinophil infiltration (eosinophils per ml of BALF) [4]: reduced

CS(=O)(=O)Nc1cccc(CN2CC[C@@H](Nc3cccc4cnccc34)C2)c1 [Compound 2.038, (R)-N-(3-((3-(isoquinolin-5-ylamino)pyrrolidin-1-yl)methyl)phenyl)methanesulfonamide]
murine eosinophil chemotactic response (murine eosinophils): inhibited | airway hyperreactivity to metacholine [3]: prevention of airway hyperreactivity | human eosinophil chemotactic response (human eosinophils): inhibited | concentration of Eotaxin in BALF [4, 5]: reduced levels | concentration of IL-5 in BALF [4, 5]: reduced levels | concentration of IL-13 in BALF [4, 5]: reduced levels | Airway eosinophil infiltration (eosinophils per ml of BALF) [4]: reduced

OCCn1ccc2cc(CN3CC[C@@H](Nc4cccc5cnccc45)C3)ccc21 [Compound 2.066, (R)-2-(5-((3-(isoquinolin-5-ylamino)pyrrolidin-1-yl)methyl)-1H-indol-1-yl)ethanol]
pIC50 [1]: 6.00 to 6.77

NC(=O)Cn1ccc2cc(CN3CCC[C@@H](Nc4ccc5[nH]ncc5c4)C3)ccc21 [Compound 1.162, (R)-2-(5-((3-(1H-indazol-5-ylamino)piperidin-1-yl)methyl)-1H-indol-1-yl)acetamide]
activity at 1 µM (ERK2; 1 μM test compound, read-out: Percent inhibition ERK2): 89% | activity at 10 µM (ERK2; 10 μM test compound, read-out: Percent inhibition ERK2): 60%

From patent publication US8207195B2, “Method for treating neurological and neuropathic diseases using rho kinase inhibitor compounds” (priority 2008, dated 2012)
